Data on nine compounds can be found in US5336763A, “Trisazo dye and dye composition containing the same” (Orient Chemical Industries, Ltd., priority 1992, dated 1994).

The conditions of data set [1]: background; cited from earlier work.
Data set [2] relates to strains TA98. The format is cell-based. The following applies: for AMES evaluation: strains TA98. As to the method: Regarding various specimen solutions respectively containing trisazo dyes obtained in Examples 1 to 11 to the present invention and dyes of Comparative Examples 1 to 3, the number of mutant colonies was determined using strains TA98. 2. When the ratio is less than 2, it is "negative" and, when the ratio is more than 2, it is "positive", and the results are shown in Table. 1.

Read-outs that look alike come from different tables or passages of the source.

As to `Cc1cc(-c2ccc(N=Nc3c(S(=O)(=O)[O-])cc4cc(S(=O)(=O)[O-])c(N=Nc5ccccc5)c(O)c4c3N)c(C)c2)ccc1N=Nc1ccc(N)cc1N.[Na+].[Na+]` [C.I. Direct Black 154], in data set [1], the Ames test result was “false positive or positive”.

On to C.I. Direct Black 168, for which the Ames test result in data set [1] is listed as “false positive or positive”.

As for `Nc1ccc(N=Nc2ccc(N=Nc3c(S(=O)(=O)[O-])cc4cc(S(=O)(=O)[O-])c(N=Nc5ccc(N=Nc6ccc(N)cc6N)cc5)c(O)c4c3N)cc2)c(N)c1.[Na+].[Na+]` [C.I. Direct Black 19], the Ames test result in data set [1] is recorded as “false positive or positive”.

For the compound `CCC(C)c1ccc(N=Nc2c(S(=O)(=O)O)cc3cc(S(=O)(=O)O)c(N=Nc4ccc(Oc5cccc(Oc6ccc(N=Nc7ccc(O)cc7O)cc6)c5)cc4)c(N)c3c2O)cc1` (stereo not drawn) [Ex. 3], the “Ames test: ratio of number of colonies to control” value (from here on “Ames test: ratio”) in data set [2] (20 μg/plate, with S-9) stood at 1.32; in data set [2] (20 μg/plate, without S-9), 0.76; in data set [2] (78 μg/plate, with S-9) it was 1.79; in data set [2] (78 μg/plate, without S-9) it was 0.86; in data set [2] (313 μg/plate, with S-9) it was 1.59; in data set [2] (313 μg/plate, without S-9), 0.86. Besides, the “Ames test: ratio” value came out at 0.76 in data set [2] (1250 μg/plate, with S-9); 1.10 in data set [2] (1250 μg/plate, without S-9); 0.56 in data set [2] (5000 μg/plate, with S-9); 0.95 in data set [2] (5000 μg/plate, without S-9). Also, the AMES evaluation result in data set [2] was “Negative (When the ratio is less than 2, it is "negative")”.

As for `Nc1c(N=Nc2ccc(Oc3ccc(Oc4ccc(N=Nc5ccc(O)cc5O)cc4)cc3)cc2)cc(S(=O)(=O)O)c2ccc(N=Nc3ccccc3)c(O)c12` [Ex. 10], the “Ames test: ratio” value was 0.91 in data set [2] (20 μg/plate, with S-9); 1.03 in data set [2] (20 μg/plate, without S-9); 0.92 in data set [2] (78 μg/plate, with S-9); 1.01 in data set [2] (78 μg/plate, without S-9); 0.85 in data set [2] (313 μg/plate, with S-9); 0.84 in data set [2] (313 μg/plate, without S-9). Further, the “Ames test: ratio” value is recorded as 1.09 in data set [2] (1250 μg/plate, with S-9); 1.02 in data set [2] (1250 μg/plate, without S-9); 0.90 in data set [2] (5000 μg/plate, with S-9); 0.97 in data set [2] (5000 μg/plate, without S-9). In addition, in data set [2], the AMES evaluation entry was “Negative (When the ratio is less than 2, it is "negative")”.

With `Nc1ccc(N=Nc2ccc(Oc3cccc(Oc4ccc(N=Nc5cc(S(=O)(=O)O)c6cc(S(=O)(=O)O)c(N=Nc7ccccc7)c(O)c6c5N)cc4)c3)cc2)c(O)c1` [Ex. 9], the “Ames test: ratio” value in data set [2] (20 μg/plate, with S-9) is 1.05; in data set [2] (20 μg/plate, without S-9), 0.85; in data set [2] (78 μg/plate, with S-9), 1.00; in data set [2] (78 μg/plate, without S-9), 0.65; in data set [2] (313 μg/plate, with S-9), 1.16; in data set [2] (313 μg/plate, without S-9), 0.75. Besides, the “Ames test: ratio” value in data set [2] (1250 μg/plate, with S-9) is 1.00; in data set [2] (1250 μg/plate, without S-9) it was 0.60; in data set [2] (5000 μg/plate, with S-9), 0.53; in data set [2] (5000 μg/plate, without S-9), 1.15. Moreover, the AMES evaluation entry in data set [2] is listed as “Negative (When the ratio is less than 2, it is "negative")”.

As for `Nc1c(N=Nc2ccc(Oc3ccc(Oc4ccc(N=Nc5ccc(O)cc5O)cc4)cc3)cc2)c(S(=O)(=O)O)cc2cc(S(=O)(=O)O)c(N=Nc3ccccc3)c(O)c12` [Ex. 5], the “Ames test: ratio” value in data set [2] (20 μg/plate, with S-9) turned out to be 0.93; in data set [2] (20 μg/plate, without S-9) it was 0.89; in data set [2] (78 μg/plate, with S-9) it was 1.04; in data set [2] (78 μg/plate, without S-9), 0.95; in data set [2] (313 μg/plate, with S-9) it was 0.86; in data set [2] (313 μg/plate, without S-9), 0.63. In addition, the “Ames test: ratio” value in data set [2] (1250 μg/plate, with S-9) is listed as 1.04; in data set [2] (1250 μg/plate, without S-9) it was 0.79; in data set [2] (5000 μg/plate, with S-9), 0.57; in data set [2] (5000 μg/plate, without S-9), 0.68. Also, the AMES evaluation result in data set [2] was “Negative (When the ratio is less than 2, it is "negative")”.

Turning to `Cc1cc(-c2ccc(N=Nc3c(S(=O)(=O)O)cc4cc(S(=O)(=O)O)c(N=Nc5ccccc5)c(O)c4c3N)c(C)c2)ccc1N=Nc1ccc(N)cc1N` [compound 1, reference compound], the “Ames test: ratio” value was found to be 1.92 in data set [2] (20 μg/plate, with S-9); 0.72 in data set [2] (20 μg/plate, without S-9); 2.35 in data set [2] (78 μg/plate, with S-9); 0.68 in data set [2] (78 μg/plate, without S-9); 2.50 in data set [2] (313 μg/plate, with S-9); 0.84 in data set [2] (313 μg/plate, without S-9). Besides, the “Ames test: ratio” value in data set [2] (1250 μg/plate, with S-9) came out at 1.50; in data set [2] (1250 μg/plate, without S-9), 0.76; in data set [2] (5000 μg/plate, with S-9), 0.85; in data set [2] (5000 μg/plate, without S-9), 0.96. Moreover, in data set [2], the AMES evaluation entry is “Positive (when the ratio is more than 2, it is "positive")”.

As to `Cc1cc(-c2ccc(N=Nc3c(S(=O)(=O)O)cc4cc(S(=O)(=O)O)c(N=Nc5ccc(S(=O)(=O)O)cc5)c(O)c4c3N)c(C)c2)ccc1N=Nc1ccc(O)cc1O` [compound 3, reference compound], the “Ames test: ratio” value in data set [2] (20 μg/plate, with S-9) was 1.20; in data set [2] (20 μg/plate, without S-9) it was 0.92; in data set [2] (78 μg/plate, with S-9), 2.24; in data set [2] (78 μg/plate, without S-9), 1.00; in data set [2] (313 μg/plate, with S-9), 4.16; in data set [2] (313 μg/plate, without S-9), 2.56. Also, the “Ames test: ratio” value in data set [2] (1250 μg/plate, with S-9) is reported as 1.12; in data set [2] (1250 μg/plate, without S-9), 3.56; in data set [2] (5000 μg/plate, with S-9), 0.16; in data set [2] (5000 μg/plate, without S-9), 0.96. The AMES evaluation entry in data set [2] was “Positive (when the ratio is more than 2, it is "positive")”.
